Counter-ions that a name gives are not always drawn.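 Dose response: 5 concentrations. Exposure: 48 h. Format: 96-well plates. Endpoint: linear interpolation; highest concentration if not reached. GI50 = concentration required for 50% inhibition of growth.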 Active and inactive are the calls of the source. No stated cut-off is given here; in the data, active = GI50 up to about 1.1 µM and inactive = higher.
Legend:
Assay in all cases: NCI anticancer screen, dose series, 48 h
HT-29 = system: HT-29
NCI/ADR-RES = system: NCI/ADR-RES
ACHN = system: ACHN
UO-31 = system: UO-31
OVCAR-3 = system: OVCAR-3
SNB-75 = system: SNB-75
EKVX = system: EKVX
SR = system: SR
NCI-H522 = system: NCI-H522
HCC 2998 = system: HCC 2998
SNB-19 = system: SNB-19
HOP-62 = system: HOP-62
UACC-62 = system: UACC-62
SK-MEL-28 = system: SK-MEL-28
MDA-MB-231 = system: MDA-MB-231
RXF 393 = system: RXF 393
MDA-MB-435 = system: MDA-MB-435
SK-MEL-2 = system: SK-MEL-2
OVCAR-5 = system: OVCAR-5
Malme-3M = system: Malme-3M

SMILES | GI50 (HT-29) | GI50 (NCI/ADR-RES) | GI50 (ACHN) | GI50 (UO-31) | GI50 (OVCAR-3) | GI50 (SNB-75) | GI50 (EKVX) | GI50 (SR) | GI50 (NCI-H522) | GI50 (HCC 2998) | GI50 (SNB-19) | GI50 (HOP-62) | GI50 (UACC-62) | GI50 (SK-MEL-28) | GI50 (MDA-MB-231) | GI50 (RXF 393) | GI50 (MDA-MB-435) | GI50 (SK-MEL-2) | GI50 (OVCAR-5) | GI50 (Malme-3M)
Nc1ccc([As](=O)(O)O)cc1 [ARSANILIC ACID] | > 100 µM (inactive) | > 100 µM (inactive) | > 100 µM (inactive) | > 100 µM (inactive) | > 100 µM (inactive) | > 100 µM (inactive) | > 100 µM (inactive) | > 100 µM (inactive) | > 100 µM (inactive) | > 100 µM (inactive) | > 100 µM (inactive) | > 100 µM (inactive) | > 100 µM (inactive) | > 100 µM (inactive) | > 100 µM (inactive) | > 100 µM (inactive) | > 100 µM (inactive) | > 100 µM (inactive) | > 100 µM (inactive) | > 100 µM (inactive)
CC1=CC2C3(C)C(C)(C(C)=CP3(=O)c3c(C(C)C)cc(C(C)C)cc3C(C)C)C1P2(=O)c1c(C(C)C)cc(C(C)C)cc1C(C)C (stereo not given) | 2.11 µM (inactive) | 2.07 µM (inactive) | 2.68 µM (inactive) | 1.87 µM (inactive) | 1.75 µM (inactive) | 3.05 µM (inactive) | 2.92 µM (inactive) | 1.34 µM (inactive) | 2.4 µM (inactive) | 1.9 µM (inactive) | 3.84 µM (inactive) | 2.41 µM (inactive) | 1.37 µM (inactive) | 2.58 µM (inactive) | 1.77 µM (inactive) | 3.2 µM (inactive) | 1.85 µM (inactive) | 1.72 µM (inactive) | 2.06 µM (inactive) | 2.17 µM (inactive)
NCCCCNCCCN [SPERMIDINE TRIHYDROCHLORIDE] | > 100 µM (inactive) | > 100 µM (inactive) | > 100 µM (inactive) | > 100 µM (inactive) | > 100 µM (inactive) | > 100 µM (inactive) | > 100 µM (inactive) | > 100 µM (inactive) | 97.1 µM (inactive) | > 100 µM (inactive) | > 100 µM (inactive) | > 100 µM (inactive) | > 100 µM (inactive) | > 100 µM (inactive) | > 100 µM (inactive) | > 100 µM (inactive) | 27.4 µM (inactive) | > 100 µM (inactive) | > 100 µM (inactive) | > 100 µM (inactive)
COC(=O)/C=C\C(C#N)(C#N)/N=C/c1ccc(OC)cc1 | 5.31 µM (inactive) | 2.73 µM (inactive) | 2.82 µM (inactive) | 2.25 µM (inactive) | 2.72 µM (inactive) | 16.4 µM (inactive) | 16.6 µM (inactive) | 0.681 µM (active) | 0.615 µM (active) | 20.6 µM (inactive) | > 44.7 µM (inactive) | 17.7 µM (inactive) | 15.9 µM (inactive) | 2.7 µM (inactive) | 18 µM (inactive) | 2.19 µM (inactive) | 2.33 µM (inactive) | 18.3 µM (inactive) | 21.7 µM (inactive) | 1.73 µM (inactive)
C[C@H]1CCC2C(OC(=O)[C@@H]2CN(C)C)[C@]2(C)C(=O)C=CC12O (stereo not given in full) | 4.09 µM (inactive) | 2 µM (inactive) | 2.17 µM (inactive) | 10.9 µM (inactive) | 3.76 µM (inactive) | 4.6 µM (inactive) | 4.02 µM (inactive) | 2.47 µM (inactive) | 1.32 µM (inactive) | 5.2 µM (inactive) | 22.9 µM (inactive) | 23.9 µM (inactive) | 2.55 µM (inactive) | 2.43 µM (inactive) | 9.55 µM (inactive) | 1.65 µM (inactive) | 4.47 µM (inactive) | 9.44 µM (inactive) | 14.1 µM (inactive) | 3.7 µM (inactive)
O=c1[nH]nc(Nc2ccc(Cl)cc2)c2nnn(C3CCCCC3)c12 | 26.1 µM (inactive) | 32.1 µM (inactive) | > 100 µM (inactive) | > 100 µM (inactive) | 37.2 µM (inactive) | 26.3 µM (inactive) | 84.1 µM (inactive) | 7.19 µM (inactive) | 23.9 µM (inactive) | > 100 µM (inactive) | > 100 µM (inactive) | 30.8 µM (inactive) | > 100 µM (inactive) | > 100 µM (inactive) | 13.9 µM (inactive) | 30.4 µM (inactive) | 46.3 µM (inactive) | > 100 µM (inactive) | > 100 µM (inactive) | 50.8 µM (inactive)
O=C1CC(c2n[nH]c3ccccc23)C(=O)N1c1ccccc1 (stereo not given) | > 100 µM (inactive) | > 100 µM (inactive) | > 100 µM (inactive) | > 100 µM (inactive) | > 100 µM (inactive) | > 100 µM (inactive) | > 100 µM (inactive) | 36.5 µM (inactive) | > 100 µM (inactive) | > 100 µM (inactive) | > 100 µM (inactive) | > 100 µM (inactive) | > 100 µM (inactive) | > 100 µM (inactive) | > 100 µM (inactive) | > 100 µM (inactive) | > 100 µM (inactive) | > 100 µM (inactive) | > 100 µM (inactive) | > 100 µM (inactive)
O=C1NC2c3c(I)sc(I)c3C(=O)C2O1 (stereo not given) | 1.7 µM (inactive) | 6.84 µM (inactive) | 3.05 µM (inactive) | 3.82 µM (inactive) | 3.31 µM (inactive) | 13.1 µM (inactive) | 5.52 µM (inactive) | 2.96 µM (inactive) | 1.56 µM (inactive) | 3.95 µM (inactive) | 13.2 µM (inactive) | 14.1 µM (inactive) | 8.99 µM (inactive) | 7.41 µM (inactive) | 4.49 µM (inactive) | 5.56 µM (inactive) | 4.45 µM (inactive) | 10.4 µM (inactive) | 14.3 µM (inactive) | 2.23 µM (inactive)
